Values joined by “and” are separate entries in the source; they are usually repeats but may differ in a detail not shown here. Identical values can stand only once. Records with an inconclusive call do not appear.
Tested on: HT29 intrarenal xenograft, nude mice, tumor weight change
Experiment: NCI In Vivo Anticancer Drug Screen. Data for tumor model HT29;CX-1 Human Adenocarcinoma (MER+) (intrarenal inoculation) in NU/NU BALB/C (nude) mice
Details: endpoint: mean tumor weight change, higher = larger tumour
Experimental: The antitumor activity of compounds was measured in mice bearing transplantable tumors. Survival or tumor size were measured and the results are expressed as the measurement made in the treated group (T) divided by the measurement made in the vehicle treated control group (C). The tumor model used in this assay is HT29;CX-1 Human Adenocarcinoma (MER+) (intrarenal inoculation) in NU/NU BALB/C (nude) mice

[1] = dose: 50.0 mg/kg/injection, schedule: Q04DX004 (ip), vehicle: saline with Tween-80
[2] = dose: 100.0 mg/kg/injection, schedule: Q04DX004 (ip), vehicle: saline with Tween-80
[3] = dose: 300.0 mg/kg/injection, schedule: Q04DX004 (sc), vehicle: saline with Tween-80
[4] = dose: 600.0 mg/kg/injection, schedule: Q04DX004 (sc), vehicle: saline with Tween-80
[5] = dose: 1200.0 mg/kg/injection, schedule: Q04DX004 (sc), vehicle: saline with Tween-80
[6] = dose: 100.0 mg/kg/injection, schedule: Q01DX010 (sc), vehicle: Klucel (hydroxypropylcellulose) (HPC)
[7] = dose: 150.0 mg/kg/injection, schedule: Q04DX004 (sc), vehicle: saline with Tween-80

C[n+]1c(-c2cccc3ccccc23)c2cc(N)ccc2c2ccccc21
T/C (dose: 3.0 mg/kg/injection, schedule: Q04DX004 (sc), vehicle: saline): 119 % of control | T/C (dose: 6.0 mg/kg/injection, schedule: Q04DX004 (sc), vehicle: saline): 152 % of control | T/C (dose: 12.0 mg/kg/injection, schedule: Q04DX004 (sc), vehicle: saline): 78 % of control

CCN1C=C/C(=C\C=C/c2cc[n+](CC)c3ccccc23)c2ccccc21
T/C (dose: 0.5 mg/kg/injection, schedule: Q01DX010 (sc), vehicle: saline): 229 % of control

COC1/C=C/C=C(/C)Cc2cc(O)c(Cl)c(c2)N(C)C(=O)CC(OC(=O)C(C)C)C2(C)OC2C(C)C2CC1(O)NC(=O)O2 (stereo unspecified)
T/C (dose: 2.0 mg/kg/injection, schedule: Q04DX004 (sc), vehicle: saline + alcohol): 82 % of control | T/C (dose: 4.0 mg/kg/injection, schedule: Q04DX004 (sc), vehicle: saline + alcohol): 98 % of control | T/C (dose: 8.0 mg/kg/injection, schedule: Q04DX004 (sc), vehicle: saline + alcohol): 72 % of control

C=C(C)[C@@H]1CCc2c(O)c(O)c(=O)cc(C)c2C1
T/C (dose: 75.0 mg/kg/injection, schedule: Q04DX004 (sc), vehicle: saline): 192 % of control

C(CSC1=NCCN1)CSC1=NCCN1
T/C (dose: 25.0 mg/kg/injection, schedule: Q01DX010 (sc), vehicle: saline): 78 % of control | T/C (dose: 100.0 mg/kg/injection, schedule: Q01DX010 (sc), vehicle: saline): 66 % of control | T/C (dose: 200.0 mg/kg/injection, schedule: Q01DX010 (sc), vehicle: saline): 46 % of control

CN(C)c1ccc2c(NCCCCCCNc3ccnc4cc(N(C)C)ccc34)ccnc2c1
T/C (dose: 37.5 mg/kg/injection, schedule: Q04DX004 (sc), vehicle: distilled water + Tween-80 + alcohol): 92 % of control | T/C (dose: 75.0 mg/kg/injection, schedule: Q04DX004 (sc), vehicle: distilled water + Tween-80 + alcohol): 60 % of control | T/C (dose: 150.0 mg/kg/injection, schedule: Q04DX004 (sc), vehicle: distilled water + Tween-80 + alcohol): 54 % of control

CC(=O)c1cccc(NC2C(N)C(NC(=O)N(C)C)(C(C)O)C(C)(O)C2(O)COC(=O)c2c(C)cccc2O)c1 (stereo unspecified)
T/C (dose: 0.5 mg/kg/injection, schedule: Q04DX004 (ip), vehicle: saline): 124 % of control | T/C (dose: 1.0 mg/kg/injection, schedule: Q04DX004 (ip), vehicle: saline): 93 % of control | T/C (dose: 2.0 mg/kg/injection, schedule: Q04DX004 (ip), vehicle: saline): 75 % of control | T/C (dose: 4.0 mg/kg/injection, schedule: Q04DX004 (ip), vehicle: saline): 100 % of control

O=C(CN1CCOCC1)Nc1nc(-c2ccc(Cl)cc2)cs1
T/C [1]: 60 % of control | T/C [2]: 76 % of control | T/C (dose: 200.0 mg/kg/injection, schedule: Q04DX004 (ip), vehicle: saline with Tween-80): 73 % of control | T/C (dose: 400.0 mg/kg/injection, schedule: Q04DX004 (ip), vehicle: saline with Tween-80): 101 % of control | T/C (dose: 800.0 mg/kg/injection, schedule: Q04DX004 (ip), vehicle: saline with Tween-80): 94 % of control

CS(=O)(=O)c1ncc(Br)cn1
T/C (dose: 25.0 mg/kg/injection, schedule: Q01DX010 (sc), vehicle: saline with Tween-80): 106 % of control | T/C (dose: 50.0 mg/kg/injection, schedule: Q01DX010 (sc), vehicle: saline with Tween-80): 123 % of control | T/C (dose: 100.0 mg/kg/injection, schedule: Q01DX010 (sc), vehicle: saline with Tween-80): 185 % of control

COC(=O)[C@@]12OC[C@]34[C@H]([C@@H](O)[C@@H]1O)[C@@]1(C)CC(=O)C(O)=C(C)[C@@H]1C[C@H]3OC(=O)[C@H](OC(=O)/C=C(\C)C(C)C)[C@@H]24
T/C (dose: 0.5 mg/kg/injection, schedule: Q01DX010 (sc), vehicle: saline + alcohol): 35 % of control

O=C(Nc1cc(Cl)ccc1C(=O)O)c1cccc(C[n+]2ccccc2)c1
T/C (dose: 150.0 mg/kg/injection, schedule: Q04DX004 (ip), vehicle: saline with Tween-80): 100 % of control | T/C (dose: 300.0 mg/kg/injection, schedule: Q04DX004 (ip), vehicle: saline with Tween-80): 123 % of control

O=C(Nc1cccc2c(OC(=O)C(Cl)Cl)c(N=Nc3ccc(S(=O)(=O)Nc4nccs4)cc3)cc(N=Nc3ccc(S(=O)(=O)Nc4nccs4)cc3)c12)C(Cl)Cl (tested in a mixture with another compound)
T/C [3]: 58 % of control | T/C [4]: 89 % of control | T/C [5]: 78 % of control | T/C (dose: 2400.0 mg/kg/injection, schedule: Q04DX004 (sc), vehicle: saline with Tween-80): 159 % of control

CCCCNc1ccc2nnc(C)n2n1
T/C (dose: 150.0 mg/kg/injection, schedule: Q04DX004 (ip), vehicle: DMSO): 116 % of control | T/C (dose: 150.0 mg/kg/injection, schedule: Q04DX004 (ip), vehicle: sodium bicarbonate): 86 % of control

C=C(C)C(=O)O[C@H]1CC2=C[C@@H](C[C@@]3(C)O[C@@H]3[C@H]3OC(=O)C(=C)[C@@H]31)OC2=O
T/C (dose: 75.0 mg/kg/injection, schedule: Q04DX004 (sc), vehicle: Klucel (hydroxypropylcellulose) (HPC)): 75 % of control | T/C (dose: 150.0 mg/kg/injection, schedule: Q04DX004 (sc), vehicle: Klucel (hydroxypropylcellulose) (HPC)): 121 % of control

C[n+]1ccc2cc(N)c3c4ccccc4sc3c2c1
T/C (dose: 12.5 mg/kg/injection, schedule: Q04DX004 (sc), vehicle: saline with Tween-80): 60 % of control | T/C (dose: 25.0 mg/kg/injection, schedule: Q04DX004 (sc), vehicle: saline with Tween-80): 43 % of control

Cn1cnc([N+](=O)[O-])c1S(=O)(=O)NCN1CCOCC1
T/C [6]: 80 % of control

COc1cc(C(=O)c2cocc2C(=O)c2ccc3c(c2)OCO3)cc(OC)c1OC
T/C (dose: 300.0 mg/kg/injection, schedule: Q04DX004 (sc), vehicle: Klucel (hydroxypropylcellulose) (HPC)): 103 % of control | T/C (dose: 600.0 mg/kg/injection, schedule: Q04DX004 (sc), vehicle: Klucel (hydroxypropylcellulose) (HPC)): 57 % of control | T/C (dose: 1200.0 mg/kg/injection, schedule: Q04DX004 (sc), vehicle: Klucel (hydroxypropylcellulose) (HPC)): 89 % of control | T/C (dose: 2400.0 mg/kg/injection, schedule: Q04DX004 (sc), vehicle: Klucel (hydroxypropylcellulose) (HPC)): 66 % of control

CSc1ncnc2c1ncn2C1OC(CO)C(O)C1O (stereo unspecified)
T/C (dose: 37.5 mg/kg/injection, schedule: Q04DX004 (sc), vehicle: saline + alcohol): 101 % of control | T/C (dose: 75.0 mg/kg/injection, schedule: Q04DX004 (sc), vehicle: saline + alcohol): 30 % of control | T/C (dose: 150.0 mg/kg/injection, schedule: Q04DX004 (sc), vehicle: saline + alcohol): 12 % of control

Nc1nnc[se]1
T/C (dose: 200.0 mg/kg/injection, schedule: Q04DX004 (sc), vehicle: saline with Tween-80): 64 % of control | T/C (dose: 400.0 mg/kg/injection, schedule: Q04DX004 (sc), vehicle: saline with Tween-80): 31 % of control | T/C (dose: 800.0 mg/kg/injection, schedule: Q04DX004 (sc), vehicle: saline with Tween-80): 23 % of control

C=COC(=O)C(Cc1ccccc1)NC(=O)OCc1ccccc1 (stereo unspecified)
T/C [7]: 100 % of control | T/C [3]: 80 % of control | T/C [4]: 123 % of control | T/C [5]: 60 % of control

Cc1nnc2ncccn12
T/C (dose: 100.0 mg/kg/injection, schedule: Q04DX004 (sc), vehicle: saline): 73 % of control and 84 % of control | T/C (dose: 200.0 mg/kg/injection, schedule: Q04DX004 (sc), vehicle: saline): 69 % of control and 84 % of control | T/C (dose: 400.0 mg/kg/injection, schedule: Q04DX004 (sc), vehicle: saline): 72 % of control and 76 % of control

O=C1C=CC(n2cc(F)c(=O)[nH]c2=O)O1 (stereo unspecified)
T/C (dose: 37.5 mg/kg/injection, schedule: Q04DX004 (sc), vehicle: suspension in saline): 87 % of control | T/C (dose: 75.0 mg/kg/injection, schedule: Q04DX004 (sc), vehicle: suspension in saline): 88 % of control | T/C (dose: 150.0 mg/kg/injection, schedule: Q04DX004 (sc), vehicle: suspension in saline): 47 % of control

CCCC(=O)OCc1cc(=O)n(C)c2c3c4c(cc12)c(C)cc(=O)n4CO3
T/C [6]: 40 % of control | T/C (dose: 200.0 mg/kg/injection, schedule: Q01DX010 (sc), vehicle: Klucel (hydroxypropylcellulose) (HPC)): 43 % of control | T/C (dose: 400.0 mg/kg/injection, schedule: Q01DX010 (sc), vehicle: Klucel (hydroxypropylcellulose) (HPC)): 56 % of control | T/C (dose: 800.0 mg/kg/injection, schedule: Q01DX010 (sc), vehicle: Klucel (hydroxypropylcellulose) (HPC)): 27 % of control

O=C(CCCN1CCC(C(O)c2ccc(F)cc2)CC1)c1ccc(F)cc1 (stereo unspecified)
T/C (dose: 12.5 mg/kg/injection, schedule: Q04DX004 (ip), vehicle: saline with Tween-80): 52 % of control | T/C (dose: 25.0 mg/kg/injection, schedule: Q04DX004 (ip), vehicle: saline with Tween-80): 71 % of control | T/C [1]: 106 % of control | T/C [2]: 43 % of control

FC(F)(F)c1nc2nc(Cl)c(Cl)nc2[nH]1
T/C (dose: 75.0 mg/kg/injection, schedule: Q04DX004 (sc), vehicle: saline with Tween-80): 112 % of control | T/C [7]: 42 % of control | T/C [3]: 71 % of control
